Source: article PMC7170309, “Imidazopyridine-fused [1,3]diazepinones: modulations of positions 2 to 4 and their impacts on the anti-melanoma activity” (Journal of Enzyme Inhibition and Medicinal Chemistry, 2020)

Columns and labels:
[1] = test system: NIH-3T3 non-cancerous cells; test: Neutral red uptake (NRU) toxicity assay, NIH-3T3; format: cell-based; conditions: non-cancerous mouse fibroblasts
Description: Melanoma human cancer cell line (A375 and MDA-MB-435) were obtained from ATCC. The NIH-3T3 cell line was generously gifted by the ANSM (French National Agency for Medicines and Health Products Safety, Vendargues, France). Cells were cultured in Dulbecco’s Modified Eagle Medium (DMEM, Sigma Aldrich) supplemented with 10% heat-inactivated foetal calf serum (FCS, Gibco), 2 mM glutamax (Gibco), 100 IU/mL penicillin G sodium (Sigma Aldrich), 100 lU/mL streptomycin sulphate (Sigma Aldrich). The cells were allowed to grow at 37 °C in a fully humidified atmosphere containing 5% CO2.
A viability assay was used to evaluate the cytotoxic activity on A375 and MDA-MB-435 melanoma cells as previously described. According to OCDE/ICCVAM guidance n°129, NRU assay was also used to evaluate the toxicity on the non-cancerous NIH-3T3 cells. Cells were seeded at a final concentration of 2000 cells/well (A375), 3000 cells/well (NIH-3T3) or 7500 cells/well (MDA-MB-435) in 96-well microtiter plates for 24 h. Then, cells were exposed to two negative controls (1% DMSO in culture medium (vehicle) and culture medium alone), or to different compounds freshly dissolved in DMSO, in a range of concentration from 0.01 to 40 µM (six wells per concentration). After 72 h of incubation, cells were stained with new medium containing 50 µg/mL of neutral red (3-amino-7-dimethylamino-2-methylphenazine hydrochloride, Sigma Aldrich) at 37 °C for 2 h. The neutral red medium solution was then removed and the wells were washed with PBS. Finally, 100 µL of solution containing ethanol, acetic acid and water (50/1/49 v/v/v respectively) were added into the wells and the absorbance was measured at 540 nm using the microplate reader 352 Multiscan MS (Labsystems). Cell survival rates were normalised to the absorbance values of untreated control cells. IC50 was obtained using a logistic regression model on Graphpad Prism 5.0 software. Results are given as the mean ± standard deviation (SD) of three independent experiments. Statistical analysis was performed using the Student’s t-test.
Then, all active compounds on the two melanoma cell lines (IC50 < 40 µM) were assessed on the NIH-3T3 mouse fibroblast cell line, in order to check the toxicity of our compounds on non-cancerous cells. […] As a possible modification of the mechanism of action was hypothesised for these two derivatives (see above), this phenomenon could probably be also correlated with the cytotoxicity observed on the NIH-3T3 cell line.

HL-60(TB) = test: NCI-60 SRB assay, HL-60(TB) (Leukemia); format: cell-based, human; conditions: 10 µM, 48 h
Description: (§1) Primary anticancer assay was performed on a panel of 60 human cancer cell lines derived from nine neoplastic diseases, in accordance with the protocol of the Drug Evaluation Branch, National Cancer Institute, Bethesda, Maryland, USA[22]. Cells were incubated with tested compounds at 10 µM for 48 h. The growth percentage was evaluated spectrophotometrically using a protein binding dye, SRB. Results for each tested compound were reported as the percent of growth of treated cells when compared to untreated control cells.
(§2) To better compare the activity profile of these two series of compounds, compounds 5 and 8 were selected and then evaluated towards a panel of sixty cancer cell lines corresponding to nine different cancer types, i.e. leukaemia, melanoma, as well as lung, colon, central nervous system, ovarian, renal, prostate and breast cancers (NCI evaluation). Indeed, it is now well established that the growth inhibitory patterns of anticancer drugs against the NCI-60 cell line panel correlated well with their modes of action. For example, compounds that bind to tubulin have similar growth inhibition patterns regardless of which site on tubulin they bind[30]. […] Compounds were tested using the sulforhodamine B (SRB) assay that provides a direct cell density index. The amount of dye incorporated by the cells increases with the increase of the total protein biomass. Cells were incubated for 48 h with compounds at 10 µM concentration, then cell growth was evaluated spectrophotometrically and presented as the percent of untreated control cells. Values of the most sensitive cell lines were compared to those obtained with JMV5038 (Figure 4, for all data see SI).

HOP-62 = test: NCI-60 SRB assay, HOP-62 (NSCLC); format: cell-based, human; conditions: 10 µM, 48 h; for G%: growth vs untreated control;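 for Mean G% - G%: mean growth across the NCI-60 panel minus this line's growth with positive meaning more sensitive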
Description: as §1, §2

NCI-H226 = test: NCI-60 SRB assay, NCI-H226 (NSCLC); format: cell-based, human; conditions: 10 µM, 48 h; for G%: growth vs untreated control
Description: as §1, §2

NCI-H322M = test: NCI-60 SRB assay, NCI-H322M (NSCLC); format: cell-based, human; conditions: 10 µM, 48 h; for G%: growth vs untreated control
Description: as §1, §2

KM12 = test: NCI-60 SRB assay, KM12 (Colon Cancer); format: cell-based, human; conditions: 10 µM, 48 h; for G%: growth vs untreated control
Description: as §1, §2

SNB-19 = test: NCI-60 SRB assay, SNB-19 (CNS Cancer); format: cell-based, human; conditions: 10 µM, 48 h; for G%: growth vs untreated control
Description: as §1, §2

MALME-3M = test: NCI-60 SRB assay, MALME-3M (Melanoma); format: cell-based, human; conditions: 10 µM, 48 h; for G%: growth vs untreated control
Description: as §1, §2

SK-MEL-2 = test: NCI-60 SRB assay, SK-MEL-2 (Melanoma); format: cell-based, human; conditions: 10 µM, 48 h; for G%: growth vs untreated control
Description: as §1, §2

UACC-257 = test: NCI-60 SRB assay, UACC-257 (Melanoma); format: cell-based, human; conditions: 10 µM, 48 h; for G%: growth vs untreated control
Description: as §1, §2

OVCAR-8 = test: NCI-60 SRB assay, OVCAR-8 (Ovarian Cancer); format: cell-based, human; conditions: 10 µM, 48 h; for G%: growth vs untreated control;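 for Mean G% - G%: mean growth across the NCI-60 panel minus this line's growth with positive meaning more sensitive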
Description: as §1, §2

NCI/ADR-RES = test: NCI-60 SRB assay, NCI/ADR-RES (Ovarian Cancer); format: cell-based, human; conditions: 10 µM, 48 h; for G%: growth vs untreated control;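 for Mean G% - G%: mean growth across the NCI-60 panel minus this line's growth with positive meaning more sensitive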
Description: as §1, §2

786-0 = test: NCI-60 SRB assay, 786-0 (Renal Cancer); format: cell-based, human; conditions: 10 µM, 48 h; for G%: growth vs untreated control
Description: as §1, §2

ACHN = test: NCI-60 SRB assay, ACHN (Renal Cancer); format: cell-based, human; conditions: 10 µM, 48 h; for G%: growth vs untreated control
Description: as §1, §2

CAKI-1 = test: NCI-60 SRB assay, CAKI-1 (Renal Cancer); format: cell-based, human; conditions: 10 µM, 48 h; for G%: growth vs untreated control
Description: as §1, §2

UO-31 = test: NCI-60 SRB assay, UO-31 (Renal Cancer); format: cell-based, human; conditions: 10 µM, 48 h; for G%: growth vs untreated control
Description: as §1, §2

PC-3 = test: NCI-60 SRB assay, PC-3 (Prostate Cancer); format: cell-based, human; conditions: 10 µM, 48 h; for G%: growth vs untreated control
Description: as §1, §2

MDA-MB-231 = test: NCI-60 SRB assay, MDA-MB-231 (Breast Cancer); format: cell-based, human; conditions: 10 µM, 48 h; for G%: growth vs untreated control;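 for Mean G% - G%: mean growth across the NCI-60 panel minus this line's growth with positive meaning more sensitive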
Description: as §1, §2

RPMI-8226 = test: NCI-60 SRB assay, RPMI-8226 (Leukemia); format: cell-based, human; conditions: 10 µM, 48 h
Description: as §1, §2

| SMILES | IC50 ([1]; Mus musculus, NIH3T3, 72 h) [µM] | Mean G% - G% (HOP-62) | G% (HOP-62) | Mean G% - G% (NCI-H226) | G% (NCI-H226) | Mean G% - G% (NCI-H322M) | G% (NCI-H322M) | Mean G% - G% (KM12) | G% (KM12) | Mean G% - G% (SNB-19) | G% (SNB-19) | Mean G% - G% (MALME-3M) | G% (MALME-3M) | Mean G% - G% (SK-MEL-2) | G% (SK-MEL-2) | Mean G% - G% (UACC-257) | G% (UACC-257) | Mean G% - G% (OVCAR-8) | G% (OVCAR-8) | Mean G% - G% (NCI/ADR-RES) | also measured |
| --- | --- | --- | --- | --- | --- | --- | --- | --- | --- | --- | --- | --- | --- | --- | --- | --- | --- | --- | --- | --- | --- |
| [N-]=[N+]=NCCCC[C@@H]1NC(c2ccc(Br)cc2)=Nc2nc3ccccn3c2C1=O [Compound 16, (4S)-4-(4-azidobutyl)-2-(4-bromophenyl)-3,4-dihydro-5H-pyrido[1’,2’:1,2]imidazo[4,5-d][1,3]diazepin-5-one] | ~10 | 14,42% | 77,35% | 3,58% | 88,19% | 0,41% | 91,36% | 10,11% | 81,66% | -3,35% | 95,12% | -22,73% | 114,50% | -16,61% | 108,38% | 5,48% | 86,29% | 6,78% | 84,99% | -9,49% | IC50 ([1]; 72 h): 9.9 ± 0.51 µM; Mean G% - G% (HL-60(TB)): 18,52%; G% (HL-60(TB); growth vs untreated control): 73,25%; G% (NCI/ADR-RES): 101,26%; Mean G% - G% (786-0): 0,98%; G% (786-0): 90,79%; Mean G% - G% (ACHN): 3,57%; G% (ACHN): 88,20%; Mean G% - G% (CAKI-1): 7,26%; G% (CAKI-1): 84,51%; Mean G% - G% (UO-31): 27,99%; G% (UO-31): 63,78%; Mean G% - G% (PC-3): -10,51%; G% (PC-3): 102,28%; Mean G% - G% (MDA-MB-231): 16,73%; G% (MDA-MB-231): 75,04% |
| C[C@@H]1NC(c2ccc(N=[N+]=[N-])cc2)=Nc2nc3ccccn3c2C1=O [Compound 5, (4S)-4-methyl-2-(4-azidophenyl)-3,4-dihydro-5H-pyrido[1’,2’:1,2]imidazo[4,5-d][1,3]diazepin-5-one] | > 40 | 6,31% | 78,95% | -3,88% | 89,14% | -10,63% | 95,89% | 27,28% | 57,98% | -4,44% | 89,70% | 3,28% | 81,98% | -9,12% | 94,38% | -15,59% | 100,85% | -16,08% | 101,34% | 11,92% | G% (NCI/ADR-RES): 73,34%; Mean G% - G% (786-0): -9,88%; G% (786-0): 95,14%; Mean G% - G% (ACHN): 0,49%; G% (ACHN): 84,77%; Mean G% - G% (CAKI-1): 10,49%; G% (CAKI-1): 74,77%; Mean G% - G% (UO-31): 15,67%; G% (UO-31): 69,59%; Mean G% - G% (PC-3): -10,97%; G% (PC-3): 96,23%; Mean G% - G% (MDA-MB-231): 4,91%; G% (MDA-MB-231): 80,35% |
| C[C@@H]1NC(c2ccc(Br)cc2)=Nc2nc3ccccn3c2C1=O [JMV5038] | > 100 | -1,60% | 55,84% | -14,04% | 68,28% | -19,71% | 73,95% | 24,69% | 29,55% | -28,38% | 82,62% | 2,49% | 51,75% | 6,87% | 47,37% | -15,71% | 69,95% | -18,28% | 72,52% | 14,87% | Mean G% - G% (RPMI-8226): -39,73%; G% (RPMI-8226; growth vs untreated control): 93,97%; G% (NCI/ADR-RES): 39,37%; Mean G% - G% (786-0): -28,86%; G% (786-0): 83,10%; Mean G% - G% (ACHN): -14,97%; G% (ACHN): 69,21%; Mean G% - G% (CAKI-1): 10,09%; G% (CAKI-1): 44,15%; Mean G% - G% (UO-31): -7,77%; G% (UO-31): 62,01%; Mean G% - G% (PC-3): -8,96%; G% (PC-3): 63,20%; Mean G% - G% (MDA-MB-231): 1,53%; G% (MDA-MB-231): 52,71% |
